How the values were obtained:
[1] = test system: southern crabgrass; assay: Test Example 5: herbicidal effect by foliage application, plastic box (Table 20, symbol F); format: in vivo, southern crabgrass (Digitaria ciliaris); conditions: foliage application, 320 g/ha, 3 weeks after application
Method in brief: (§1)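 Plants sown in sterilized diluvial soil and grown 14 days in a greenhouse at 25° C to 30° C, then sprayed on the foliage with the compound's emulsion diluted in water to a predetermined herbicide amount. Injury to weeds and crops scored three weeks after application on a visual rating scale.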

[2] = test system: persian speedwell; assay: Test Example 5: herbicidal effect by foliage application, plastic box (Table 20, symbol R); format: in vivo, Persian speedwell (Veronica persica); conditions: foliage application, 320 g/ha, 3 weeks after application
Method in brief: as §1

[3] = test system: barnyard grass; assay: Test Example 4: herbicidal effect by soil treatment (Table 19, symbol H); format: in vivo, barnyard grass (Echinochloa crus-galli); conditions: 320 g/ha
Method in brief: (§2)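 Seeds were sown in sterilized diluvial soil and covered with about 1.5 cm of soil. An emulsion formulation diluted with water to a predetermined herbicide amount was sprayed evenly onto the soil surface. Plants grew in a greenhouse at 25° C. to 30° C., and the effect was scored three weeks after application using criteria from an earlier test.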

[4] = test system: Italian ryegrass; assay: Test Example 5: herbicidal effect by foliage application, plastic box (Table 20, symbol K); format: in vivo, Italian ryegrass (Lolium multiflorum); conditions: foliage application, 320 g/ha, 3 weeks after application
Method in brief: as §1

[5] = test system: barnyard grass; assay: Test Example 5: herbicidal effect by foliage application, plastic box (Table 20, symbol H); format: in vivo, barnyard grass (Echinochloa crus-galli); conditions: foliage application, 320 g/ha, 3 weeks after application
Method in brief: as §1

[6] = test system: windgrass; assay: Test Example 4: herbicidal effect by soil treatment (Table 19, symbol L); format: in vivo, windgrass (Apera spica-venti); conditions: 320 g/ha
Method in brief: as §2

[7] = test system: velvetleaf; assay: Test Example 5: herbicidal effect by foliage application, plastic box (Table 20, symbol M); format: in vivo, velvetleaf (Abutilon theophrasti); conditions: foliage application, 320 g/ha, 3 weeks after application
Method in brief: as §1

[8] = test system: rice flat sedge; assay: Test Example 3: herbicidal effect by foliage application, Wagner pot (Table 18, symbol E); format: in vivo, rice flat sedge (Cyperus iria); conditions: 320 g/ha
Method in brief: (§3)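 Plants were sown in alluvial soil held under 0.1–0.5 cm standing water and grown 14 days in a greenhouse at 25–30 °C. An emulsifiable formulation, water-diluted to the set dose, was then sprayed onto the foliage, and effects were scored three weeks later using previously defined criteria.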

[9] = test system: velvetleaf; assay: Test Example 4: herbicidal effect by soil treatment (Table 19, symbol M); format: in vivo, velvetleaf (Abutilon theophrasti); conditions: 320 g/ha
Method in brief: as §2

[10] = test system: barnyard grass; assay: Test Example 3: herbicidal effect by foliage application, Wagner pot (Table 18, symbol H); format: in vivo, barnyard grass (Echinochloa crus-galli); conditions: 320 g/ha
Method in brief: as §3

[11] = test system: green foxtail; assay: Test Example 4: herbicidal effect by soil treatment (Table 19, symbol G); format: in vivo, green foxtail (Setaria viridis); conditions: 320 g/ha
Method in brief: as §2

[12] = test system: wild oat; assay: Test Example 4: herbicidal effect by soil treatment (Table 19, symbol I); format: in vivo, wild oat (Avena fatua); conditions: 320 g/ha
Method in brief: as §2

[13] = test system: wild oat; assay: Test Example 5: herbicidal effect by foliage application, plastic box (Table 20, symbol I); format: in vivo, wild oat (Avena fatua); conditions: foliage application, 320 g/ha, 3 weeks after application
Method in brief: as §1

[14] = test system: Chinese sprangletop; assay: Test Example 3: herbicidal effect by foliage application, Wagner pot (Table 18, symbol D); format: in vivo, chinese sprangletop (Leptochloa chinensis); conditions: 320 g/ha
Method in brief: as §3

[15] = test system: lambsquarters; assay: Test Example 5: herbicidal effect by foliage application, plastic box (Table 20, symbol O); format: in vivo, lambsquarters (Chenopodium album); conditions: foliage application, 320 g/ha, 3 weeks after application
Method in brief: as §1

[16] = test system: Italian ryegrass; assay: Test Example 4: herbicidal effect by soil treatment (Table 19, symbol K); format: in vivo, Italian ryegrass (Lolium multiflorum); conditions: 320 g/ha
Method in brief: as §2

[17] = test system: redroot pigweed; assay: Test Example 4: herbicidal effect by soil treatment (Table 19, symbol N); format: in vivo, redroot pigweed (Amaranthus retroflexus); conditions: 320 g/ha
Method in brief: as §2

[18] = test system: southern crabgrass; assay: Test Example 4: herbicidal effect by soil treatment (Table 19, symbol F); format: in vivo, southern crabgrass (Digitaria ciliaris); conditions: 320 g/ha
Method in brief: as §2

[19] = test system: green foxtail; assay: Test Example 5: herbicidal effect by foliage application, plastic box (Table 20, symbol G); format: in vivo, green foxtail (Setaria viridis); conditions: foliage application, 320 g/ha, 3 weeks after application
Method in brief: as §1

[20] = test system: windgrass; assay: Test Example 5: herbicidal effect by foliage application, plastic box (Table 20, symbol L); format: in vivo, windgrass (Apera spica-venti); conditions: foliage application, 320 g/ha, 3 weeks after application
Method in brief: as §1

[21] = test system: persian speedwell; assay: Test Example 4: herbicidal effect by soil treatment (Table 19, symbol R); format: in vivo, Persian speedwell (Veronica persica); conditions: 320 g/ha
Text: [Test Example 4] Herbicidal Effect Test by Soil Treatment
Sterilized diluvial soil was placed in a plastic box having a length of 21 cm, a width of 13 cm, and a depth of 7 cm. The seeds of each of southern crabgrass, green foxtail, barnyard grass, wild oat, blackgrass, Italian ryegrass, windgrass, velvetleaf, redroot pigweed, lambsquarters, chickweed, false cleavers, persian speedwell, corn, soybean, rice, wheat, beet, and rapeseed were sowed in a spot-like manner and covered with the soil having a thickness of about 1.5 cm. Subsequently, the emulsion agent of the compound of the present invention prepared according to Formulation Example 2 was diluted with water so as to achieve a predetermined herbicide amount, and the diluted emulsion agent was uniformly applied to the surface of the soil with a small-sized spray. The plastic box was placed in a greenhouse at 25° C. to 30° C. for growth of the plants. Three weeks after the herbicide application, the effect of the herbicide on each plant was evaluated according to the criteria of Test Example 1.

[22] = test system: chickweed; assay: Test Example 4: herbicidal effect by soil treatment (Table 19, symbol P); format: in vivo, common chickweed (Stellaria media); conditions: 320 g/ha
Method in brief: as §2

[23] = test system: blackgrass; assay: Test Example 5: herbicidal effect by foliage application, plastic box (Table 20, symbol J); format: in vivo, blackgrass (Alopecurus myosuroides); conditions: foliage application, 320 g/ha, 3 weeks after application
Method in brief: as §1

[24] = test system: lambsquarters; assay: Test Example 4: herbicidal effect by soil treatment (Table 19, symbol O); format: in vivo, lambsquarters (Chenopodium album); conditions: 320 g/ha
Method in brief: as §2

Cc1nn(C)c(=O)c(-c2c(-c3ccc(F)cc3)sc3ccc(F)cc23)c1OCC(=O)c1ccccc1 [2-008]
effect on southern crabgrass (F) [1]: 0 (Herbicidal rate of 5% or less (almost no effect)) | effect on persian speedwell (R) [2]: 3 (Herbicidal rate of 40% or more and less than 70%) | herbicidal effect rating, H: barnyard grass [3]: 0 (Herbicidal rate of 5% or less (almost no effect)) | effect on Italian ryegrass (K) [4]: 3 (Herbicidal rate of 40% or more and less than 70%) | effect on barnyard grass (H) [5]: 0 (Herbicidal rate of 5% or less (almost no effect)) | herbicidal effect rating, L: windgrass [6]: 0 (Herbicidal rate of 5% or less (almost no effect)) | effect on velvetleaf (M) [7]: 1 (Herbicidal rate of 5% or more and less than 20%) | herbicidal effect on E (rice flat sedge), rating 0-5 [8]: 4 (Herbicidal rate of 70% or more and less than 90%) | herbicidal effect rating, M: velvetleaf [9]: 0 (Herbicidal rate of 5% or less (almost no effect)) | herbicidal effect on H (barnyard grass), rating 0-5 [10]: 2 (Herbicidal rate of 20% or more and less than 40%) | herbicidal effect rating, G: green foxtail [11]: 0 (Herbicidal rate of 5% or less (almost no effect)) | herbicidal effect rating, I: wild oat [12]: 0 (Herbicidal rate of 5% or less (almost no effect)) | effect on wild oat (I) [13]: 0 (Herbicidal rate of 5% or less (almost no effect)) | herbicidal effect on D (Chinese sprangletop), rating 0-5 [14]: 1 (Herbicidal rate of 5% or more and less than 20%) | effect on lambsquarters (O) [15]: 1 (Herbicidal rate of 5% or more and less than 20%) | herbicidal effect rating, K: Italian ryegrass [16]: 0 (Herbicidal rate of 5% or less (almost no effect)) | herbicidal effect rating, N: redroot pigweed [17]: 4 (Herbicidal rate of 70% or more and less than 90%) | herbicidal effect rating, F: southern crabgrass [18]: 0 (Herbicidal rate of 5% or less (almost no effect)) | effect on green foxtail (G) [19]: 0 (Herbicidal rate of 5% or less (almost no effect)) | effect on windgrass (L) [20]: 0 (Herbicidal rate of 5% or less (almost no effect)) | herbicidal effect rating, R: persian speedwell [21]: 0 (Herbicidal rate of 5% or less (almost no effect)) | herbicidal effect rating, P: chickweed [22]: 0 (Herbicidal rate of 5% or less (almost no effect)) | effect on blackgrass (J) [23]: 0 (Herbicidal rate of 5% or less (almost no effect)) | herbicidal effect rating, O: lambsquarters [24]: 0 (Herbicidal rate of 5% or less (almost no effect))

From patent US20230085307A1, “PYRIDAZINONE COMPOUND AND HERBICIDE” (NISSAN CHEMICAL CORPORATION, priority 2019, published 2023)
